According to article PMC10073126, “Levosimendan inhibits disulfide tau oligomerization and ameliorates tau pathology in Tau^P301L-BiFC mice” (Experimental & Molecular Medicine, 2023):
Blank lines part the entries; values can stand above or below the molecule they belong to.

Legend:
[1] = target: T1, tau cysteines (Homo sapiens, UniProt P10636); test: Covalent binding to tau (14C autoradiography, MALDI-TOF of R1-R4 peptides); settings: 720 μM with tauK18 72 μM, 2 h, RT
T1 construct: 6xHis; made in house; host or cells: E. coli BL21 (DE3)
Experimental: TauK18 (1 mg/mL, 72 μM) was incubated with ^14C-levosimendan (720 μM) in PBS containing 5% DMSO at RT for 2 h. Then, the mixture was separated on a 15% SDS–PAGE gel under nonreducing conditions and stained with Coomassie blue. For autoradiography, the SDS–PAGE gel was transferred to a PVDF membrane and scanned by Typhoon FLA 7000 IP (GE Healthcare).
Each repeat domain (R1, R2, R3, R4, R2-C291S or R3-C322S, 150 μM) was incubated with levosimendan (molar ratio 1:10 of a tau repeat domain: levosimendan) at RT for 37 h. The samples were mixed with matrix solution (10 mg mL^−1 sinapinic acid in 0.1% (v/v) trifluoroacetic acid/CAN) at a ratio of 1:1. The mixtures were directly spotted onto the MALDI target and dried. Mass spectra were acquired in reflection/linear positive ion mode in the m/z range of 2000–100,000 using an Ultraflex III TOF/TOF mass spectrometer controlled by Flex Control 3.0 (Bruker Daltonics). The default operating conditions were as follows: ion source 1, 25.0 kV; ion source 2, 23.0 kV; lens voltage, 6.0 kV; laser repetition rate = 100 Hz. All spectra were generated automatically in the instrument software and based on averaging 1000 shots from 10 nonoverlapping positions (100 shots/position).

[2] = target: T2, tauK18 (Homo sapiens, UniProt P10636); test: In vitro tau aggregation assay (thioflavin S); assay type: biochemical; settings: heparin-induced, 5 days
T2 construct: under in vitro conditions using a purified tauK18 fragment; 6xHis; made in house; host or cells: E. coli BL21 (DE3)
Experimental: To evaluate the inhibitory effect of drugs on tau aggregation, tauK18 protein (0.5 mg/mL) was incubated with each drug at various concentrations in the presence of DTT (100 μM) and heparin (0.1 mg/mL) at 37 °C for 5 days with vigorous shaking (220 rpm). For the tau disaggregation assay, the preformed aggregation mixture of tauK18 was incubated with each drug at 37 °C for 4 days with vigorous shaking (220 rpm). On the final day of incubation, the level of β-sheet aggregates was evaluated by thioflavin S (ThS) assay. For the ThS assay, 5 μL of each mixture was transferred to a black 384-well plate with 45 μL of PBS containing 10 μM ThS. ThS fluorescence (λex = 430 nm, and λem = 500 nm) was measured by using a Flexstation2 spectrophotometer (Molecular Devices).

[3] = target: T3, tau (Homo sapiens, UniProt P10636); test: Tau-BiFC response in tau-BiFC cells (high-content imaging); assay type: cell-based; design: expressed in transfected cells; host or cells: HEK293 Tau-BiFC cells (G418-selected); settings: 100 μM, 48 h, tauK18^P301L
[4] = target: tauK18 fragment; test: non-reducing SDS-PAGE with Coomassie staining (disulfide-linked oligomers); tauK18 0.5 mg/mL in PBS pH 7.4 with DTT (100 uM) and heparin (0.1 mg/mL), RT, 5 h, shaking; 4-20% gel; DMSO control, MB, LMTM or levosimendan (10, 30, 100 uM)
[5] = Cell viability of tau-BiFC cells (number of nuclei); assay type: cell-based, human; settings: human, HEK293 Tau-BiFC cells, 48 h of treatment
Experimental: HEK293 Tau-BiFC cells were maintained in Dulbecco’s modified Eagle medium (DMEM) supplemented with 10% fetal bovine serum (FBS), 100 units/mL penicillin, 100 µg/mL streptomycin and 100 µg/mL Geneticin (G418) in a humidified atmosphere containing 5% CO2 at 37 °C. Tau-BiFC cells were activated by treatment with FK (30 μM) or tauK18^P301L (5 μg/mL).
For screening of FDA-approved & Passed Phase I Drug Library, tau-BiFC cells were plated on µ-clear 384-well plates. The next day, the cells were cotreated with forskolin and 1,018 library compounds at a concentration of 10 µM. MB and LMTM (3 µM) were used as positive controls. After 46 h, nuclei were counterstained with Hoechst (Invitrogen). BiFC (λex = 460–490 nm and λem = 500–550 nm) and Hoechst (λex = 355–385 nm and λem = 430–500 nm) fluorescence images were acquired automatically by using Operetta® (PerkinElmer). BiFC fluorescence intensity and the number of nuclei were quantified using Harmony 3.1 software (PerkinElmer). Integrated tau-BiFC intensity represents the area of selected cell X mean fluorescence intensity. The means and standard deviations (S.D.) of BiFC fluorescence intensities and the number of nuclei were plotted using GraphPad Prism.

[6] = tested on: Tau-BiFC cells; test: Flow cytometry analysis of tau-BiFC cells; assay type: cell-based, human; settings: drug 5 μM with tauK18^P301L
Experimental: After 24 h, BiFC cells were collected and subjected to flow cytometry analysis using a BD FACSLyric^TM cytometer (BD Biosciences). A total of 50,000 events were acquired per sample. All samples were gated using the same gating tree and gate positions: side scatter area (SSC-A) vs. forward scatter area (FSC-A) for viable and singlet cell populations. BiFC fluorescence was excited by a 488 nm wave laser and collected through a 527/32 bandpass filter.

[7] = tested on: tau; test: Tau immunoblot of primary hippocampal neuron lysates; assay type: cell-based, rat; settings: 3 μM, nonreducing SDS-PAGE, primary neurons, tauK18^P301L; control 1.8 ± 0.3-fold
Experimental: Band intensity was quantified using ImageJ software (NIH). All data were normalized to β-actin.
(§1) Primary hippocampal neurons were isolated from Day 18 embryonic Sprague‒Dawley rat brains as described previously. The neurons were seeded at a density of 3.5 × 10^5 cells per well on a poly-D-lysine-coated 6-well plate and maintained in neurobasal medium at 37 °C in a humidified atmosphere of 5% CO2. The neurobasal medium contained 2% B27 supplement, 0.5 mM GlutaMAX, 100 units/mL penicillin, and 100 μg/mL streptomycin. Every 3 days, 50% of the medium was replaced with fresh neurobasal medium. At DIV10, neurons were incubated with MB, LMTM (3 µM), or levosimendan (10 µM) in the presence of tauK18^P301L (10 µg/mL) for 48 h.

[8] = tested on: primary hippocampal neurons; test: NeuO staining, number of neurons and neurite lengths; assay type: cell-based; settings: 3 μM, tauK18^P301L, 48 h
Experimental: as §1
At DIV10, neurons grown on a 96-well plate were treated with MB, LMTM (3 µM), or levosimendan (10 µM) followed by tauK18^P301L activation. After 48 h, the neurons were stained with NueO (50 nM), a neuron-selective probe. NeuO fluorescence (λex = 460–490 nm and λem = 518–580 nm) images were acquired by using Operetta® (PerkinElmer). The number of neurons and total lengths of neurites were quantified by Harmony 3.1 software (PerkinElmer). Error bars represent the standard deviations (S.D.) of four replicate experiments.

[9] = target: T2, tauK18; test: TauK18 oligomerization assay in vitro (SDS-PAGE); assay type: biochemical; settings: 100 μM, 5 h, nonreducing SDS-PAGE; DMSO control 50 ± 1.1%
Experimental: To induce tau oligomerization, tauK18 (0.5 mg/mL dissolved in PBS, pH 7.4) was incubated with each drug in the presence of DTT (100 μM) and heparin (0.1 mg/mL) at RT for 5 h with vigorous shaking. Then, tau oligomers were separated on 4–20% SDS‒PAGE gels under reducing and nonreducing conditions and visualized by Coomassie blue staining.

[10] = target: T3, tau; test: Tau immunoblot of tau-BiFC cell lysates (reducing and nonreducing SDS-PAGE); settings: 5 μM, tauK18^P301L-activated tau-BiFC cells
Experimental: For reducing SDS‒PAGE analysis, cell or brain lysates were mixed with 4x Laemmli buffer containing 10% β-mercaptoethanol (BME) and boiled at 97 °C for 5 min. For nonreducing SDS‒PAGE analysis, cell or brain lysates were mixed with 4x Laemmli buffer without BME. For immunoblot analysis, 10 μg of each lysate was separated on a 10% SDS–PAGE gel and transferred to a PVDF membrane. The levels of total tau and phosphorylated tau were detected by anti-tau antibodies against 2B11 (IBL), Tau5 (Abcam), pSer199 (Abcam), pSer396 (Abcam), and pThr205 (Abcam). […] Band intensity was quantified using ImageJ software (NIH). All data were normalized to β-actin.

T2 sequence (P10636 561-685 limits assumed): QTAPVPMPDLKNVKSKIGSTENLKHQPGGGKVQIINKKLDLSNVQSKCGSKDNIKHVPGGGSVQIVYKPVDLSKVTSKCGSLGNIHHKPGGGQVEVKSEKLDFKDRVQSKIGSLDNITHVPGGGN
T3 sequence (P10636 1-441 isoform P10636-8): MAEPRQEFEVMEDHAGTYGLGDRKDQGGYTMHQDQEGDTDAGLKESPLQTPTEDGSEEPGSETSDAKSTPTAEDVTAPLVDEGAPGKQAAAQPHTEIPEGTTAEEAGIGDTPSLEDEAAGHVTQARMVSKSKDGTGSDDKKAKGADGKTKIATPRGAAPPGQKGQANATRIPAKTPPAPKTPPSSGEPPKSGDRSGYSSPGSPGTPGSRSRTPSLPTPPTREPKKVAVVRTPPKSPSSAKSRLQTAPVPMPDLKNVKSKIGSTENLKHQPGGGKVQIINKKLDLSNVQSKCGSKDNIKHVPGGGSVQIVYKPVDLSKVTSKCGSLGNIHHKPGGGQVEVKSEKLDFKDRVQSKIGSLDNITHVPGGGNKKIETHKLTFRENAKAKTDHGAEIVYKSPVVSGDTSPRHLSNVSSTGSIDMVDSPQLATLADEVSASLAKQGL
T3 sequence (P10636 1-441 isoform P10636-8): as above
T1 sequence (P10636 561-689 limits assumed): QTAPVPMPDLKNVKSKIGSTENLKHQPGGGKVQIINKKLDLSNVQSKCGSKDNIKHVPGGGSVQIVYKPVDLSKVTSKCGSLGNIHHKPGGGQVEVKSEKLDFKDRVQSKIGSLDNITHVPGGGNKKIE

Molecule: CC1CC(=O)NN=C1c1ccc(NN=C(C#N)[14C]#N)cc1 (stereo not shown) [^14C-levosimendan]
Covalent labeling of tau on nonreducing SDS-PAGE (14C-radiography) [1]: covalent attachment to tau

Molecule: tauK18 fragment (domain or fragment)
percent of total tau as disulfide-linked oligomers (DMSO control) [4]: 50%

Molecule: CN(C)c1ccc2nc3ccc(=[N+](C)C)cc-3sc2c1 [MB, methylene blue]
GI50 at 48 h ([5]; Tau-BiFC^ON by forskolin (30 μM)): 6.2 ± 0.4 µM
GI50 at 48 h ([5]; Tau-BiFC^ON by tauK18^P301L (5 μg/mL)): 7.1 ± 0.3 µM
P1: intact cell population out of total cells ([6]; 24 h): 13.7%
Median BiFC fluorescence intensity of BiFC-responding cells ([6]; BiFC^ON control […] ± 62, basal 332 ± 110): 648 ± 49
Level of disulfide-linked tau oligomers compared to basal [7]: 2.3 ± 0.5 fold
Number of NeuO-stained live neurons ([8]; basal 1925 ± 66, control 943 ± 30): 986 ± 150 neurons
Neurite length ([8]; control 142.8 ± 17.8 μm): did not show a significant effect on neuronal integrity
Level of disulfide-linked tau oligomers (of total tau) [9]: 77.6 ± 2.0%
Level of disulfide-linked tau oligomers compared to basal ([10]; nonreducing SDS-PAGE, control 2.4 ± 0.4-fold): 1.6 ± 0.3 fold
Level of pS199-positive monomers compared to basal ([10]; reducing gel): 0.2 ± 0.1 fold
Level of pS199-positive oligomers compared to basal ([10]; reducing gel): 0.4 ± 0.2 fold
Level of pT205-positive monomers compared to basal ([10]; reducing gel): 0.1 ± 0.1 fold
Level of pT205-positive oligomers compared to basal ([10]; reducing gel): 0.7 ± 0.3 fold

Second part, led by results:

Inhibition of tau aggregation in vitro (ThS response) [2]: did not inhibit tau aggregation in vitro
Molecule: C[C@@H]1CC(=O)NN=C1c1ccc(N)cc1 [OR-1855]
Inhibition of tau-BiFC fluorescence increase [3]: did not inhibit the tau-BiFC fluorescence increase

Inhibition of tau aggregation in vitro (ThS response) [2]: did not inhibit tau aggregation in vitro
Molecule: CC(=O)Nc1ccc(C2=NNC(=O)C[C@H]2C)cc1 [OR-1896]
Inhibition of tau-BiFC fluorescence increase [3]: did not inhibit the tau-BiFC fluorescence increase
